In US12653191B2, “Active compound combinations” (Bayer Aktiengesellschaft, priority 2020, dated 2026):
Several values for one entry are separate records, joined by “and”; a condition that tells them apart may be missing. Equal values may be shown once.

Key:
Botrytis cinerea [1] = experiment: in vitro-Test with fungal microorganisms, Method B (tables B15-B18); type: cell-based; details: alone
Summary of the method: (§1)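 Steps: solvent evaporation leaves the compound coating the wells; fungus-inoculated liquid growth medium goes on top; absorbance at 600 nm is measured; incubation runs 3 to 7 days at 20° C. with 85% relative humidity. Inhibition is then read photometrically and expressed as efficacy against untreated control.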

Cercospora beticola [2] = experiment: in vitro-Test with fungal microorganisms, Method B (tables C11-C20); type: cell-based; details: single compound
Summary of the method: as §1

Alternaria alternate = experiment: in vitro-Test with fungal microorganisms, Method A (tables A1-A12); type: cell-based, Alternaria alternata; details: applied alone
Summary of the method: (§2)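 Compound was dried into wells and overlaid with liquid potato dextrose medium containing spores or mycelium of the fungus. Plates were held at 20° C and 85% RH, and growth was read as extinction at 620 nm after 3–5 days. Efficacy is relative to the untreated control (0% = control growth, 100% = no growth).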

Parastagonospora nodorum = experiment: in vitro-Test with fungal microorganisms, Method A (tables H1-H4); type: cell-based
Protocol: Example: In Vitro-Test with Fungal Microorganisms
Wells of 96-well microtiter plates are filled with 10 μl of a preparation of test compound or compound combination in methanol+emulsifier alkylaryl-polyglycol-ether. Thereafter, the solvent is evaporated in a hood. At the next step, 100 μl of liquid potato dextrose medium is given into each well, that has been amended with an appropriate concentration of spores or mycelium suspension of the test fungus.
With the aid of a photometer, the extinction in all wells is measured at the wavelength of 620 nm.
The microtiter plates are incubated at 20° C. and 85% relative humidity. The inhibition of growth is determined again photometrically 3-5 days after the application. Efficacy is calculated in relation to the untreated control, 0% efficacy means fungal growth as high as in untreated control while 100% efficacy means no fungal growth is measured.
The data in tables A1 to A12, B1 to B14, C1 to C10, D1 to D8, E1 to E8, F1 to F11, G1 to G4, H1 to H4 and I1 to I5 were collected according to Method A. The data in tables A13 to A22, B15 to B18, C11 to C20, E9 to E16, F12 to F15, G5 to G15, H5 to H8, I6 to I11 and J1 to J11 were collected according to Method B.

Diaporthe citri [3] = experiment: in vitro-Test with fungal microorganisms, Method A (tables F1-F11); type: cell-based
Summary of the method: as §2

Botrytis cinerea [4] = experiment: in vitro-Test with fungal microorganisms, Method A (tables B1-B14); type: cell-based; details: for Efficacy %: alone
Summary of the method: as §2

[5] = test system: Ustilago segetum var. avenae; experiment: in vitro-Test with fungal microorganisms, Method B (tables I6-I11); type: cell-based
Summary of the method: as §1

Cordana musae [6] = experiment: in vitro-Test with fungal microorganisms, Method B (tables E9-E16); type: cell-based; details: for Efficacy: single active; for Efficacy %: single substance
Summary of the method: as §1

Colletotrichum coccodes = experiment: in vitro-Test with fungal microorganisms, Method B (tables J1-J11); type: cell-based
Summary of the method: as §1

Fusarium culmorum = experiment: in vitro-Test with fungal microorganisms, Method B (tables G5-G15); type: cell-based
Summary of the method: as §1

[7] = test system: Colletotrichum lindemuthianum; experiment: in vitro-Test with fungal microorganisms, Method A (tables D1-D8); type: cell-based
Summary of the method: as §2

Cercospora beticola [8] = experiment: in vitro-Test with fungal microorganisms, Method A (tables C1-C10); type: cell-based
Summary of the method: as §2

Diaporthe citri [9] = experiment: in vitro-Test with fungal microorganisms, Method B (tables F12-F15); type: cell-based
Summary of the method: as §1

[10] = test system: Ustilago segetum var. avenae; experiment: in vitro-Test with fungal microorganisms, Method A (tables I1-I5); type: cell-based; details: alone
Summary of the method: as §2

Alternaria alternata = experiment: in vitro-Test with fungal microorganisms, Method B (tables A13-A22); type: cell-based
Summary of the method: as §1

Cordana musae [11] = experiment: in vitro-Test with fungal microorganisms, Method A (tables E1-E8); type: cell-based; details: single substance
Summary of the method: as §2

## COc1ccnc(C(=O)N[C@H]2COC(=O)[C@H](Cc3ccccc3)[C@@H](OC(=O)C(C)C)[C@H](C)OC2=O)c1OCOC(=O)C(C)C [(3.025) fenpicoxamid, fenpicoxamid]
Botrytis cinerea [1]; 0.008 ppm
  Efficacy %: 0%
Botrytis cinerea [1]; 0.2 ppm
  Efficacy %: 14%
Botrytis cinerea [1]; 1 ppm
  Efficacy %: 52%
Cercospora beticola [2]; 0.008 ppm
  Efficacy %: 0%
Cercospora beticola [2]; 0.2 ppm
  Efficacy %: 17% and 31%
Cercospora beticola [2]; 1 ppm
  Efficacy %: 97% and 100%
Alternaria alternate; 0.04 ppm
  Efficacy %: 5% and 9%
Alternaria alternate; 0.2 ppm
  Efficacy %: 2% and 7%
Alternaria alternate; 1.0 ppm
  Efficacy %: 41% and 30%
Alternaria alternate; 5.0 ppm
  Efficacy %: 76% and 59%
Parastagonospora nodorum; 0.04 ppm
  Efficacy: 19%
Parastagonospora nodorum; 0.2 ppm
  Efficacy: 61%
Parastagonospora nodorum; 1.0 ppm
  Efficacy: 64%
Parastagonospora nodorum; 5.0 ppm
  Efficacy: 72%
Diaporthe citri [3]; applied alone, 0.04 ppm
  Efficacy: 3%
Diaporthe citri [3]; applied alone, 1.0 ppm
  Efficacy: 79% and 66%
Diaporthe citri [3]; applied alone, 5.0 ppm
  Efficacy: 92%
Botrytis cinerea [4]; 0.04 ppm
  Efficacy: 6%
  Efficacy %: 15%
Botrytis cinerea [4]; 0.2 ppm
  Efficacy: 6%
  Efficacy %: 9%
Botrytis cinerea [4]; 1.0 ppm
  Efficacy: 21%
  Efficacy %: 15%
Botrytis cinerea [4]; 5.0 ppm
  Efficacy %: 45%
[5]; 0.008 ppm
  Efficacy %: 14%
[5]; 0.04 ppm
  Efficacy %: 6%
[5]; 0.2 ppm
  Efficacy %: 1%
Cordana musae [6]; 0.2 ppm
  Efficacy: 44%
  Efficacy %: 52%
Cordana musae [6]; 0.008 ppm
  Efficacy %: 0%
Colletotrichum coccodes; single active compound at 0.2 ppm
  Efficacy %: 23% and 33%
Colletotrichum coccodes; single active compound at 1 ppm
  Efficacy %: 16%
Fusarium culmorum; 0.008 ppm alone
  Efficacy: 10%
Fusarium culmorum; single active compound, 0.008 ppm
  Efficacy: 7% and 5%
Fusarium culmorum; single active compound, 0.04 ppm
  Efficacy: 1% and 9%
Fusarium culmorum; single active compound, 0.2 ppm
  Efficacy: 18% and 25%
Fusarium culmorum; single active compound, 1 ppm
  Efficacy: 17%
[7]; single active at 0.04 ppm
  Efficacy %: 0%
[7]; single active at 0.2 ppm
  Efficacy %: 5%
[7]; single active at 1.0 ppm
  Efficacy %: 69% and 66%
[7]; single active at 5.0 ppm
  Efficacy %: 79% and 86%
Cercospora beticola [8]; 0.04 ppm
  Efficacy %: 0%
Cercospora beticola [8]; 0.2 ppm
  Efficacy %: 2%
Cercospora beticola [8]; 0.2 ppm alone
  Efficacy %: 41% and 35%
Cercospora beticola [8]; 1.0 ppm
  Efficacy %: 20%
Cercospora beticola [8]; 1.0 ppm alone
  Efficacy %: 62% and 53%
Cercospora beticola [8]; 5.0 ppm
  Efficacy %: 98%
Cercospora beticola [8]; 5.0 ppm alone
  Efficacy %: 92% and 88%
Diaporthe citri [9]; Table F12, 0.008 ppm alone
  Efficacy: 0%
Diaporthe citri [9]; Table F12, 0.2 ppm alone
  Efficacy: 83%
Diaporthe citri [9]; Table F12, 1 ppm alone
  Efficacy: 94%
Diaporthe citri [9]; Table F13, 0.2 ppm alone
  Efficacy: 79%
[10]; 0.04 ppm
  Efficacy %: 0%
[10]; 0.2 ppm
  Efficacy %: 0%
[10]; 1.0 ppm
  Efficacy %: 0%
[10]; 5.0 ppm
  Efficacy %: 0%
Alternaria alternata; single compound, 0.008 ppm
  Efficacy: 6%
Alternaria alternata; single compound, 0.04 ppm
  Efficacy: 14%
Alternaria alternata; single compound, 1 ppm
  Efficacy: 61%
Cordana musae [11]; 1.0 ppm
  Efficacy %: 40%
Cordana musae [11]; 5.0 ppm
  Efficacy %: 80%

## mancozeb [(5.013) mancozeb]
Botrytis cinerea [1]; 0.8 ppm
  Efficacy %: 0% and 4%
Cercospora beticola [2]; 0.8 ppm
  Efficacy %: 0%
Parastagonospora nodorum; 0.08 ppm
  Efficacy: 0%
Parastagonospora nodorum; 0.4 ppm
  Efficacy: 5%
Parastagonospora nodorum; 2.0 ppm
  Efficacy: 37%
Parastagonospora nodorum; 10.0 ppm
  Efficacy: 100%
Diaporthe citri [3]; Table F10, 0.08 ppm alone
  Efficacy: 0%
Diaporthe citri [3]; Table F10, 0.4 ppm alone
  Efficacy: 46%
Diaporthe citri [3]; Table F10, 2.0 ppm alone
  Efficacy: 100%
Diaporthe citri [3]; Table F10, 10.0 ppm alone
  Efficacy: 100%
Diaporthe citri [3]; applied alone, 0.08 ppm
  Efficacy: 6%
Diaporthe citri [3]; applied alone, 0.4 ppm
  Efficacy: 21%
Diaporthe citri [3]; applied alone, 2.0 ppm
  Efficacy: 100%
Diaporthe citri [3]; applied alone, 10.0 ppm
  Efficacy: 100%
Diaporthe citri [3]; single active, 0.08 ppm
  Efficacy: 2%
Diaporthe citri [3]; single active, 0.4 ppm
  Efficacy: 0%
Diaporthe citri [3]; single active, 2.0 ppm
  Efficacy: 46%
Diaporthe citri [3]; single active, 10.0 ppm
  Efficacy: 100%
Botrytis cinerea [4]; 0.4 ppm
  Efficacy: 0%
Botrytis cinerea [4]; 2.0 ppm
  Efficacy: 0%
Botrytis cinerea [4]; 10.0 ppm
  Efficacy: 33%
Botrytis cinerea [4]; 0.8 ppm
  Efficacy %: 15%
Botrytis cinerea [4]; 4.0 ppm
  Efficacy %: 0%
Botrytis cinerea [4]; 20.0 ppm
  Efficacy %: 15%
Botrytis cinerea [4]; 100.0 ppm
  Efficacy %: 83%
Cordana musae [6]; 0.8 ppm
  Efficacy: 0%
Cordana musae [6]; 4 ppm
  Efficacy: 14% and 19%
Cordana musae [6]; 20 ppm
  Efficacy: 100%
Colletotrichum coccodes; single active compound at 0.8 ppm
  Efficacy %: 0%
Colletotrichum coccodes; single active compound at 4 ppm
  Efficacy %: 0%
Colletotrichum coccodes; single active compound at 20 ppm
  Efficacy %: 100%
Fusarium culmorum; single active compound, 0.8 ppm
  Efficacy: 0%
Fusarium culmorum; single active compound, 4 ppm
  Efficacy: 16%
Fusarium culmorum; single active compound, 20 ppm
  Efficacy: 50% and 31%
[7]; single active at 0.08 ppm
  Efficacy %: 4%
[7]; single active at 0.4 ppm
  Efficacy %: 0%
[7]; single active at 10.0 ppm
  Efficacy %: 100%
Cercospora beticola [8]; 0.08 ppm
  Efficacy %: 4% and 0%
Cercospora beticola [8]; 0.08 ppm alone
  Efficacy %: 0%
Cercospora beticola [8]; 0.4 ppm alone
  Efficacy %: 0%
Cercospora beticola [8]; 2.0 ppm
  Efficacy %: 100%
Cercospora beticola [8]; 2.0 ppm alone
  Efficacy %: 100%
Cercospora beticola [8]; 10.0 ppm
  Efficacy %: 100%
Cercospora beticola [8]; 10.0 ppm, alone
  Efficacy %: 100%
Diaporthe citri [9]; Table F14, 0.8 ppm alone
  Efficacy: 0%
Diaporthe citri [9]; Table F14, 4 ppm alone
  Efficacy: 78%
Diaporthe citri [9]; Table F14, 20 ppm alone
  Efficacy: 99%
[10]; 0.08 ppm
  Efficacy %: 3%
[10]; 0.4 ppm
  Efficacy %: 0%
[10]; 2.0 ppm
  Efficacy %: 10%
[10]; 10.0 ppm
  Efficacy %: 98%
Alternaria alternata; 0.8 ppm
  Efficacy: 4%
Alternaria alternata; 4 ppm
  Efficacy: 36%
Alternaria alternata; 20 ppm
  Efficacy: 63%
Cordana musae [11]; 0.08 ppm
  Efficacy %: 0%
Cordana musae [11]; 0.4 ppm
  Efficacy %: 0% and 3%
Cordana musae [11]; 2.0 ppm
  Efficacy %: 31% and 32%
Cordana musae [11]; 10.0 ppm
  Efficacy %: 100%
